Experimental data as given in ChEMBL document CHEMBL1128697, “Synthesis of isoornithines and methylputrescines. An evaluation of their inhibitory effects on ornithine decarboxylase” (J Med Chem, 1995).

Biological target: T1, Ornithine decarboxylase (Rattus norvegicus, UniProt P09057)
T1 sequence (P09057 whole entry): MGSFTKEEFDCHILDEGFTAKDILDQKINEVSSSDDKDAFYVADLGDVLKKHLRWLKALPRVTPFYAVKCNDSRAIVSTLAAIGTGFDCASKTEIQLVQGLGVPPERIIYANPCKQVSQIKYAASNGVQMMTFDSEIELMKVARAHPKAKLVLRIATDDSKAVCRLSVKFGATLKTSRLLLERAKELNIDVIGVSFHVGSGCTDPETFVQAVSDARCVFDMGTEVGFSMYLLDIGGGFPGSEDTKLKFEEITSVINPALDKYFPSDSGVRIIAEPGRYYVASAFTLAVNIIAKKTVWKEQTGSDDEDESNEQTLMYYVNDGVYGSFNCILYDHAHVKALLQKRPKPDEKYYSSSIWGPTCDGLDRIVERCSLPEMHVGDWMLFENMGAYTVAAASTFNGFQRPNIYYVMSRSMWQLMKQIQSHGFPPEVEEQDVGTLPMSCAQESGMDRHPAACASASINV
Assay: Inhibition of liver Ornithine decarboxylase in thioacetamide-treated rat

Ki | Compound
> 10.5 mM | CC(CN)C(C)(C)CN (stereo unspecified)
> 10 mM | CC(C)(CN)CCN
> 11 mM | CC(C)(CN)C(C)(C)CN
> 11 mM | CC(CN)(CCN)C(=O)O (stereo unspecified)
1.79 mM | NCCC(CN)C(=O)O (stereo unspecified)
6.1 mM | CC(CN)C(C)CN (stereo unspecified)
3.5 mM | NCCCCN [PUTRESCINE]

Compound | Ki
CC(C)(CN)C(C)(CN)C(=O)O (stereo unspecified) | > 11 mM
CC(CN)C(C)(CN)C(=O)O (stereo unspecified) | 1.65 mM
CC(C)(CN)C(CN)C(=O)O (stereo unspecified) | > 11 mM
CC(CN)C(CN)C(=O)O (stereo unspecified) | 0.72 mM
